Like-named read-outs stand apart in the source and are kept apart here.
Key:
[1] = molecular target: T1, heparanase (Homo sapiens, UniProt Q9Y251); experiment: AGA*IA assay: heparanase-catalyzed fondaparinux cleavage, colorimetric (WST-1); format: biochemical
T1 sequence (Q9Y251 158-543 limits assumed): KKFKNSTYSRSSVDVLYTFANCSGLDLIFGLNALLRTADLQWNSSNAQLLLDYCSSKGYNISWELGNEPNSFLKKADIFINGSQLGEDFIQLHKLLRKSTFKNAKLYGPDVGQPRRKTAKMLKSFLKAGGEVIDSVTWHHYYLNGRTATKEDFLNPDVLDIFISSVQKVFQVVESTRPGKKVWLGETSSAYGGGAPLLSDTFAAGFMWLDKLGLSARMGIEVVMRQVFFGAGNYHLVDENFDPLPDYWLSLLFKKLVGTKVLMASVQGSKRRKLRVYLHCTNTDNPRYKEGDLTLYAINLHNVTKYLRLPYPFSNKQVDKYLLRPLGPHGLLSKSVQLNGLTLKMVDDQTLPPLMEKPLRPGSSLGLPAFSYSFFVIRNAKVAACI
T1 sequence (Q9Y251 36-109 limits assumed): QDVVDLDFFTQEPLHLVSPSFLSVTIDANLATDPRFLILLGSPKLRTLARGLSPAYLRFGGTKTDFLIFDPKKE
Procedure: All compounds were tested in a simple, accurate and robust microplate assay based on the cleavage of the synthetic heparin fragment, the pentasaccharide Fondaparinux (AGA*IA). This assay was originally developed by Hammond and coworkers (Hammond E, Li CP, Ferro V. Development of a colorimetric assay for heparanase activity suitable for kinetic analysis and inhibitor screening. Anal. Biochem. 396(1), 112-116 (2010)), where Fondaparinux corresponds to the methyl glycoside of the antithrombin III (ATIII)-activating pentasaccharide sequence of heparin. Fondaparinux is cleaved by heparanase to generate a reducing disaccharide, which can be quantitatively measured via a colorimetric or a fluorescence assay, the last by the fluorescent sensor polymer-H [Schiemann S, Lühn S, Alban S. Development of both colorimetric and fluorescence heparinase activity assays using fondaparinux as substrate. Anal. Biochem. 427(1), 82-89 (2012)].
The assay measures the appearance of the disaccharide product of heparanase-catalyzed fondaparinux cleavage colorimetrically using the tetrazolium salt WST-1. Assay was essentially performed as described with minor modifications. Briefly, NUNC ELISA 96-well plates were pre-treated with a solution of 4% BSA (bovin serum albumin) in phosphate-buffered saline containing 0.05% Tween 20 (PBST), for 2 h at 37°C, then washed three times with PBST, dried by tapping on paper towel and stored at -20°C. Before use, once again, the plates were washed with PBST.
Assay was carried out with 100 µl/well of assay solution containing 40 mM sodium acetate buffer (pH 5.0), 100 µM fondaparinux, 2.5 nM heparanase and serial dilutions of test compounds (tested in triplicate). Plates were sealed with adhesive tape and incubated, in the dark, for 3 h at 37°C, followed by development with 1.69 mM of the tetrazolium salt WST-1 solution in 0.1 M NaOH, for 1 h at 60°C. Then, the absorbance at 560 nm was measured through a microplate reader (Victor 3, Perkin Elmer).
Finally, the measurements were corrected by subtracting both the reagent background and the inner absorbance value of test compound.

[2] = tested on: U2OS (human osteosarcoma); experiment: SRB Cell Cytotoxicity Assay (cell proliferation, 72h); format: cell-based; settings: 72 h, read-out: Concentration (µM) of test compounds at which the cell growth is inhibited by 50 %. U2OS
Procedure: (§1) SRB Cell Cytotoxicity Assay is an assay based upon the quantitative staining of cellular proteins by sulforhodamine B (SRB). This assay can be used for high-throughput drug screening ([…], Nature Protocol. 2006, 1, 112). Sulforhodamine B is an anionic aminoxanthene dye that forms an electrostatic complex with the basic amino acid residues of proteins under moderately acid conditions, which provides a sensitive linear response. […] Inhibition of cell proliferation was then measured by the classical colorimetric SRB Cell Cytotoxicity assay. Absorbance was measured by spectrophotometer at a wavelength of 510 nm and cell proliferation was determined as percent with respect to control cells (cells treated with the vehicle alone). EC50 values were then determined by GraphPad Prism.

[3] = tested on: U87MG (human glioblastoma astrocytoma); experiment: as above; format: cell-based; settings: U-87 MG, 72 h, read-out: Concentration (µM) of test compounds at which the cell growth is inhibited by 50 %. U87MG
Procedure: as §1

[4] = tested on: HT1080 (human fibrosarcoma); experiment: as above; format: cell-based; settings: HT-1080, 72 h, read-out: Concentration (µM) of test compounds at which the cell growth is inhibited by 50 %. HT1080
Procedure: as §1

[5] = Table 1, range activity classes, AGA*IA test on Fondaparinux, read-out: AGAIA assay IC50
[6] = Table 2, classes as in Table 1, read-out: AGA*IA assay

Row | Compound | IC50 [1, 5] [µM] | other results
1 | Cn1cc(NC(=O)c2cccc(NC(=O)Nc3cccc(C(=O)Nc4cc(C(=O)Nc5cccc(CC(=O)N[C@@H](Cc6ccccc6)C(=O)O)c5)n(C)c4)c3)c2)cc1C(=O)Nc1cccc(CC(=O)N[C@@H](Cc2ccccc2)C(=O)O)c1 [Compound 12e, 2,2'-{carbonylbis[imino-3,1-phenylenecarbonylimino(1-methyl-1H-pyrrole-4,2-diyl)carbonylimino-3,1-phenylene(1-oxoethane-2,1-diyl)imino]}bis(3-phenylpropanoic acid)] | 0.05 to 0.49 | IC50 ([1]; AGA*IA screening, read-out: anti-heparanase activity): < 0.5 µM; IC50 [1, 6]: 0.05 to 0.49 µM; EC50 [2]: > 2.5 µM; EC50 [3]: > 2.5 µM; EC50 [4]: > 2.5 µM
2 | Cn1cc(NC(=O)Nc2cc(C(=O)Nc3cc(C(=O)Nc4cccc(CC(=O)O)c4)n(C)c3)n(C)c2)cc1C(=O)Nc1cc(C(=O)Nc2cccc(CC(=O)O)c2)n(C)c1 [Compound 17h, 2,2'-{carbonylbis[imino(1-methyl-1H-pyrrole-4,2-diyl)carbonylimino(1-methyl-1H-pyrrole-4,2-diyl)carbonylimino-3,1-phenylene]}diacetic acid] | 0.5 to 0.99 | IC50 [1, 6]: 0.5 to 0.99 µM; EC50 [2]: > 2.5 µM; EC50 [3]: > 2.5 µM; EC50 [4]: > 2.5 µM
3 | C[C@H](NC(=O)Cc1cccc(NC(=O)c2cc(NC(=O)c3ccc(Oc4ccc(C(=O)Nc5cc(C(=O)Nc6cccc(CC(=O)N[C@@H](C)C(=O)O)c6)n(C)c5)cc4)cc3)cn2C)c1)C(=O)O [Compound 36d, (2S,2'S)-2,2'-((2,2'-(((4,4'-((4,4'-Oxybis(benzoyl))bis(azanediyl))bis(1-methyl-1H-pyrrole-2,2'-carbonyl))bis(azanediyl))bis(3,1-phenylene))bis(acetyl))bis(azanediyl))dipropanoic acid] | 1 to 20 | –
4 | Cn1cc(NC(=O)c2ccc(Oc3ccc(C(=O)Nc4cc(C(=O)Nc5cccc(CC(=O)N[C@@H](CCC(=O)O)C(=O)O)c5)n(C)c4)cc3)cc2)cc1C(=O)Nc1cccc(CC(=O)N[C@@H](CCC(=O)O)C(=O)O)c1 [Compound 36f, (2S,2'S)-2,2'-((2,2'-(((4,4'-((4,4'-Oxybis(benzoyl))bis(azanediyl))bis(1-methyl-1H-pyrrole-2,2'-carbonyl))bis(azanediyl))bis(3,1-phenylene))bis(acetyl))bis(azanediyl))dipentanedioic acid] | 1 to 20 | –
5 | CC(C)C[C@H](NC(=O)Cc1cccc(NC(=O)c2cc(NC(=O)c3cc(NC(=O)Nc4cc(C(=O)Nc5cc(C(=O)Nc6cccc(CC(=O)N[C@@H](CC(C)C)B(O)O)c6)n(C)c5)n(C)c4)cn3C)cn2C)c1)B(O)O [Compound 41, ((1R,1'R)-((2,2'-(((4,4'-((4,4'-(carbonylbis(azanediyl))bis(1-methyl-1H-pyrrole-4,2-diyl-2-carbonyl))bis(azanediyl))bis(1-methyl-1H-pyrrole-4,2-diyl-2-carbonyl))bis(azanediyl))bis(3,1-phenylene))bis(acetyl))bis(azanediyl))bis(3-methylbutane-1,1-diyl))diboronic acid] | 1 to 20 | –
6 | CC(C)C[C@H](NC(=O)Cc1cccc(NC(=O)c2cc(NC(=O)c3ccc(Oc4ccc(C(=O)Nc5cc(C(=O)Nc6cccc(CC(=O)N[C@@H](CC(C)C)B(O)O)c6)n(C)c5)cc4)cc3)cn2C)c1)B(O)O [Compound 42, ((1R,1'R)-((2,2'-(((4,4'-((4,4'-Oxybis(benzoyl))bis(azanediyl))bis(1-methyl-1H-pyrrole-2,2'-carbonyl))bis(azanediyl))bis(3,1-phenylene))bis(acetyl))bis(azanediyl))bis(3-methylbutane-1,1-diyl))diboronic acid] | 1 to 20 | –
7 | CC(C)C[C@H](NC(=O)Cc1cccc(NC(=O)c2cc(NC(=O)c3cccc(NC(=O)Nc4cccc(C(=O)Nc5cc(C(=O)Nc6cccc(CC(=O)N[C@@H](CC(C)C)B(O)O)c6)n(C)c5)c4)c3)cn2C)c1)B(O)O [Compound 43, ((1R,1'R)-((2,2'-(((4,4'-((3,3'-(Carbonylbis(azanediyl))bis(benzoyl))bis(azanediyl))bis(1-methyl-1H-pyrrole-4,2-diyl-2-carbonyl))bis(azanediyl))bis(3,1-phenylene))bis(acetyl))bis(azanediyl))bis(3-methylbutane-1,1-diyl))diboronic acid] | 1 to 20 | –
8 | CC(C)C[C@H](NC(=O)CNC(=O)Cc1cccc(NC(=O)c2cc(NC(=O)c3cc(NC(=O)Nc4cc(C(=O)Nc5cc(C(=O)Nc6cccc(CC(=O)NCC(=O)N[C@@H](CC(C)C)B(O)O)c6)n(C)c5)n(C)c4)cn3C)cn2C)c1)B(O)O [Compound 46, ((1R,1'R)-((2,2'-((2,2'-(((4,4'-((4,4'-(carbonylbis(azanediyl))bis(1-methyl-1H-pyrrole-4,2-diyl-2-carbonyl))bis(azanediyl))bis(1-methyl-1H-pyrrole-4,2-diyl-2-carbonyl))bis(azanediyl))bis(3,1-phenylene))bis(acetyl))bis(azanediyl))bis(acetyl))bis(azanediyl))bis(3-methylbutane-1,1-diyl))diboronic acid] | 1 to 20 | –
9 | CC(C)C[C@H](NC(=O)CNC(=O)Cc1cccc(NC(=O)c2cc(NC(=O)c3cccc(NC(=O)Nc4cccc(C(=O)Nc5cc(C(=O)Nc6cccc(CC(=O)NCC(=O)N[C@@H](CC(C)C)B(O)O)c6)n(C)c5)c4)c3)cn2C)c1)B(O)O [Compound 47, ((1R,1'R)-((2,2'-((2,2'-(((4,4'-((3,3'-(Carbonylbis(azanediyl))bis(benzoyl))bis(azanediyl))bis(1-methyl-1H-pyrrole-4,2-diyl-2-carbonyl))bis(azanediyl))bis(3,1-phenylene))bis(acetyl))bis(azanediyl))bis(acetyl))bis(azanediyl))bis(3-methylbutane-1,1-diyl))diboronic acid] | 1 to 20 | –

Source: patent EP3381898A1, “SYMMETRICAL TRIS-ARYL-AMIDE DERIVATIVES AND THEIR USE AS ANTI-HEPARANASE” (priority 2017, dated 2018)
